Source: US20230165846A1, “HETEROCYCLIC GLP-1 AGONISTS” (Gasherbrum Bio, Inc., priority 2020, published 2023)

How the values were obtained:
[1] = target: T1, GLP-1 Receptor (Homo sapiens, UniProt P43220); assay: GLP-1R agonist cAMP stimulation assay, Method 1 (DiscoverX CHO-K1, enzyme fragment complementation); format: cell-based; conditions: CHO-K1 cell line (DiscoverX) stably expressing GLP-1 Receptor; incubation 30 or 60 min at 37° C.; geometric mean where n>=2; read-out: GLP1R cAMP Stimulation DR: EC50 (nM) Method 1
T1 sequence (P43220 24-463): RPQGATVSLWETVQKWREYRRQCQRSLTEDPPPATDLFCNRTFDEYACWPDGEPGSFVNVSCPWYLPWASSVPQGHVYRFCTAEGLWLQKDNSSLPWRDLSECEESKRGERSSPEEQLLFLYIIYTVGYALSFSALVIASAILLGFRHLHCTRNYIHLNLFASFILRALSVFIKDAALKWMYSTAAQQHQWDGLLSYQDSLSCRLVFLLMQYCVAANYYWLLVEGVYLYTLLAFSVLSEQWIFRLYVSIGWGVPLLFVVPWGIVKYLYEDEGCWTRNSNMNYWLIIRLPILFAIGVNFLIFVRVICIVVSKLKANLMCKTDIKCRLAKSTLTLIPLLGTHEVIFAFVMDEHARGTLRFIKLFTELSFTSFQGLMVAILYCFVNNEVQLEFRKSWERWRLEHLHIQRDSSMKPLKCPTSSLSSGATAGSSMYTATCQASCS
Experimental: Activation of GLP-1 receptor is known to stimulate cyclic AMP (cAMP) production in cells which indicates primary coupling to the Gas subunit of the G protein heterotrimeric complex.
Method 1: To optimize functional activity directed toward Gas coupling, a CHO—K1 cell line developed by DiscoverX stably expressing the GLP-1 Receptor was used. Cells expressing GLP-1 receptor were plated in a 384-well microtiter plates and incubated overnight at 37° C. with 5% CO2 to allow the cells to attach and grow. Media was then aspirated from the cells and replaced with 15 uL 2:1 Hanks Balanced Salt Solution (HBSS)/10mM Hepes : cAMP XS+ Ab reagent. Five microliters (5 uL) of previously generated compound sample stocks at 4x final concentration in assay buffer were then added to the cells and allowed to incubate at 37° C. for 30 or 60 minutes.
After incubation the assay signal was generated using enzyme fragment complementation (EFC). In EFC, the enzyme B-galactosidase is split into two complementary portions (EA and ED). The fragment ED is fused to cAMP and in the assay format competes with endogenous cAMP for binding to a cAMP specific antibody. Activated β—Gal is formed when exogenous EA fragment binds to free ED-cAMP (not bound to cAMP specific antibody). Activated enzyme levels are detected through conversion of β-gal chemiluminescent substrate which generates a detectable luminescence signal and read on standard microtiter plate.
The methodology for detection of cAMP using EFC requires incubation with 20uL of cAMP XS+ ED/CL lysis cocktail for one hour followed by incubation with 20 uL cAMP XS+ EA reagent for three hours at room temperature. Microplates were read following signal generation with a PerkinElmer Envision instrument utilizing chemiluminescent signal detection. Compound activity was analyzed using CBIS data analysis suite (ChemInnovation, CA). Percentage activity was calculated using the following formula:
(§1) %Activity = 100% x (mean RLU of test sample - mean RLU of vehicle control) / (mean RLU of MAX control - mean RLU of vehicle control))
(§2) This is done to account for the lognormal distribution of multiple estimates of EC50 values. In practice geometric mean is calculated by first generating log values of EC50, averaging replicates and then calculating the antilog of the average.

[2] = target: T1, GLP-1 Receptor; assay: GLP-1R agonist cAMP stimulation assay, Method 2 (HDB HEK293/GLP1R/CRE-LUC, Cisbio cAMP dynamic 2 kit); format: cell-based; conditions: HEK293/GLP1R/CRE-LUC cells (HD Biosciences); 30 min at 37° C.; 0.5 mM IBMX, 0.1% BSA; geometric mean where n>=2; read-out: GLP1R cAMP Stimulation DR: EC50 (nM) Method 2 (HDB)
Experimental: Method 2: Activation of GLP-1 receptor is known to stimulate cyclic AMP (cAMP) production in cells which indicates primary coupling to the Gas subunit of the G protein heterotrimeric complex.
To optimize functional activity directed toward Gas coupling, a HEK293/CRE-Luc cell line developed by HDB stably expressing the GLP-1 Receptor was used. 200× concentration of compound working solutions were prepared (Agilent Technologies Bravo) with ½log serial dilution in 384-well Echo LDV plate (Labcyte, Cat# LP-0200). […] Seal the plate and incubate at 37° C. with 5% CO2 for 30 min.
After incubation the cAMP assay signal was generated using cAMP dynamic 2 Kit (Cisbio). 5 µL cAMP-d2 working solution was added to each well, followed with 5 µL Anti-cAMP antibody-cryptate working solution added to each well using ThermoFisher Multidrop Combi. Incubate at room temperature for 1 hour protected from light.
as §1, §2

SMILES	EC50 [1]	EC50 [2]
O=C(O)c1ccc2nc(CC3CC=C(c4cccc(OCc5ccc(Cl)cc5F)n4)CC3)n(C[C@@H]3CCO3)c2n1 (stereo partly drawn) [Compound 102a, 2-((4-(6-((4-chloro-2-fluorobenzyl)oxy)pyridin-2-yl)cyclohex-3-en-1-yl)methyl)-3-(((S)-oxetan-2-yl)methyl)-3H-imidazo[4,5-b]pyridine-5-carboxylic acid]	0.016 nM	0.0096 nM
N#Cc1ccc(COc2nccc(C3=CCC(Cc4nc5ccc(C(=O)O)nc5n4C[C@@H]4CCO4)CC3)n2)c(F)c1 (stereo partly drawn) [Compound 105a, 2-((4-(2-((4-cyano-2-fluorobenzyl)oxy)pyrimidin-4-yl)cyclohex-3-en-1-yl)methyl)-3-(((S)-oxetan-2-yl)methyl)-3H-imidazo[4,5-b]pyridine-5-carboxylic acid]	0.12 nM	0.089 nM
N#Cc1ccc(COc2nc(C3=CCN(Cc4nc5ccc(C(=O)O)nc5n4C[C@@H]4CCO4)CC3)cs2)c(F)c1 [Compound 112a, (S)-2-((4-(2-((4-cyano-2-fluorobenzyl)oxy)thiazol-4-yl)-3,6-dihydropyridin-1 (2H)-yl)methyl)-3-(oxetan-2-ylmethyl)-3H-imidazo[4,5-b]pyridine-5-carboxylic acid]	0.26 nM	0.17 nM
N#Cc1ccc(COc2cccc(C3=CCC(Cc4nc5ccc(C(=O)O)nc5n4C[C@@H]4CCO4)CC3)n2)c(F)c1 (stereo partly drawn) [Compound 101a, 2-((4-(6-((4-cyano-2-fluorobenzyl)oxy)pyridin-2-yl)cyclohex-3-en-1-yl)methyl)-3-(((S)-oxetan-2-yl)methyl)-3H-imidazo[4,5-b]pyridine-5-carboxylic acid]	< 0.051 nM	0.019 nM
N#Cc1ccc(COc2cccc(-c3ccn(Cc4nc5ccc(C(=O)O)nc5n4C[C@@H]4CCO4)c(=O)c3)n2)c(F)c1 [Compound 106aw, (S)-2-((6-((4-cyano-2-fluorobenzyl)oxy)-2′-oxo-[2,4′-bipyridin] -1′(2′H)-yl)methyl)-3-(oxetan-2-ylmethyl)-3H-imidazo[4,5-b]pyridine-5-carboxylic acid]	1.3 nM	4.1 nM
O=C(O)c1ccc2nc(Cn3ccc(-c4cccc(OCc5ccc(Cl)cc5F)n4)cc3=O)n(C[C@@H]3CCO3)c2n1 [Compound 103aw, (S)-2-((6-((4-chloro-2-fluorobenzyl)oxy)-2′-oxo-[2,4′-bipyridin]-1′(2′H)-yl)methyl)-3-(oxetan-2-ylmethyl)-3H-imidazo[4,5-b]pyridine-5-carboxylic acid]	0.38 nM	0.89 nM
O=C(O)c1ccc2nc(Cc3ccc(-c4cccc(OCc5ccc(Cl)cc5F)n4)cc3)n(C[C@@H]3CCO3)c2n1 [Compound 120aw, 2-[[4-[6-[(4-chloro-2-fluoro-phenyl)methoxy]-2-pyridyl]phenyl]methyl]-3-[[(2S)-oxetan-2-yl]methyl]imidazo[4,5-b]pyridine-5-carboxylic acid]	< 0.051 nM	0.017 nM
O=C(O)c1ccc2nc(Cn3ccc(-c4cccc(OCc5ccc(Cl)cc5F)c4)cc3=O)n(C[C@@H]3CCO3)c2n1 [Compound 108aw, 2-[[4-[3-[(4-chloro-2-fluoro-phenyl)methoxy]phenyl]-2-oxo-1-pyridyl]methyl]-3-[[(2S)-oxetan-2-yl]methyl]-imidazo[4,5-b]pyridine-5-carboxylic acid]	5.9 nM	5.7 nM
O=C(O)c1ccc2nc(CN3CC=C(c4csc(OCc5ccc(Cl)cc5F)n4)CC3)n(C[C@@H]3CCO3)c2n1 [Compound 111a]	0.18 nM	0.073 nM
CC#CCn1c(CC2CC=C(c3cccc(OCc4ccc(Cl)cc4F)n3)CC2)nc2ccc(C(=O)O)nc21 (stereo not shown) [Compound 128, 3-(but-2-yn-1-yl)-2-((4-(6-((4-chloro-2-fluorobenzyl)oxy)pyridin-2-yl)cyclohex-3-en-1-yl)methyl)-3H-imidazo[4,5-b]pyridine-5-carboxylic acid]	–	59 nM
O=C(O)c1ccc2nc(Cc3ccc(-c4nccc(OCc5ccc(Cl)cc5F)n4)cc3)n(C[C@@H]3CCO3)c2n1 [Compound 101aw, (S)-2-(4-(4-((4-chloro-2-fluorobenzyl)oxy)pyrimidin-2-yl)benzyl)-3-(oxetan-2-ylmethyl)-3H-imidazo[4,5-b]pyridine-5-carboxylic acid]	0.069 nM	0.097 nM
O=C(O)c1ccc2nc(CC3CC=C(c4cccc(OCc5ccc(Cl)cc5F)n4)CC3)n(C[C@@H]3CCO3)c2n1 (single isomer, unassigned) [Compound 102c]	–	0.044 nM
O=C(O)c1ccc2nc(Cc3ccc(-c4nccc(OCc5ccccc5)n4)cc3)n(C[C@@H]3CCO3)c2n1 [Compound 102aw, 2-[[4-(4-benzyloxypyrimidin-2-yl)phenyl]methyl]-3-[[(2S)-oxetan-2-yl]methyl]imidazo[4,5-b]pyridine-5-carboxylic acid]	2.2 nM	1.9 nM
CC(C)(C#N)Cn1c(CC2CC=C(c3ncc(F)c(OCc4ccc(C#N)cc4F)n3)CC2)nc2ccc(C(=O)O)nc21 (stereo not shown) [Compound 124, 2-((4-(4-((4-cyano-2-fluorobenzyl)oxy)-5-fluoropyrimidin-2-yl)cyclohex-3-en-1-yl)methyl)-3-(2-cyano-2-methylpropyl)-3H-imidazo[4,5-b]pyridine-5-carboxylic acid]	–	0.39 nM
CC(C)(C#N)Cn1c(CC2CC=C(c3ncc(F)c(OCc4ccc(Cl)cc4F)n3)CC2)nc2ccc(C(=O)O)nc21 (stereo not shown) [Compound 126, 2-((4-(4-((4-chloro-2-fluorobenzyl)oxy)-5-fluoropyrimidin-2-yl)cyclohex-3-en-1-yl)methyl)-3-(2-cyano-2-methylpropyl)-3H-imidazo[4,5-b]pyridine-5-carboxylic acid]	–	0.37 nM
N#Cc1ccc(COc2nc(C3=CCC(Cc4nc5ccc(C(=O)O)nc5n4CC4(C#N)CC4)CC3)ncc2F)c(F)c1 (stereo not shown) [Compound 123, 2-((4-(4-((4-cyano-2-fluorobenzyl)oxy)-5-fluoropyrimidin-2-yl)cyclohex-3-en-1-yl)methyl)-3-((1-cyanocyclopropyl)methyl)-3H-imidazo[4,5-b]pyridine-5-carboxylic acid]	–	0.067 nM
N#Cc1ccc(COc2nc(C3=CCC(Cc4nc5ccc(C(=O)O)nc5n4CC4CC4)CC3)ncc2F)c(F)c1 (stereo not shown) [Compound 122, 2-((4-(4-((4-cyano-2-fluorobenzyl)oxy)-5-fluoropyrimidin-2-yl)cyclohex-3-en-1-yl)methyl)-3-(cyclopropylmethyl)-3H-imidazo[4,5-b]pyridine-5-carboxylic acid]	–	0.43 nM
O=C(O)c1ccc2nc(CC3CC=C(c4ccc(F)c(OCc5ccc(Cl)cc5F)n4)CC3)n(C[C@@H]3CCO3)c2n1 (stereo partly drawn) [Compound 113a, 2-((4-(6-((4-chloro-2-fluorobenzyl)oxy)-5-fluoropyridin-2-yl)cyclohex-3-en-1-yl)methyl)-3-(((S)-oxetan-2-yl)methyl)-3H-imidazo[4,5-b]pyridine-5-carboxylic acid]	–	0.015 nM
N#Cc1ccc(COc2nc(C3=CCC(Cc4nc5ccc(C(=O)O)nc5n4C[C@@H]4CCO4)CC3)ccc2F)c(F)c1 (stereo partly drawn) [Compound 115a, 2-((4-(6-((4-cyano-2-fluorobenzyl)oxy)-5-fluoropyridin-2-yl)cyclohex-3-en-1-yl)methyl)-3-(((S)-oxetan-2-yl)methyl)-3H-imidazo[4,5-b]pyridine-5-carboxylic acid]	–	0.018 nM
O=C(O)c1ccc2nc(CC3CC=C(c4cccc(OCc5ccc(Cl)cc5F)n4)CC3)n(C[C@@H]3CCO3)c2n1 (single isomer, unassigned) [Compound 102b]	–	0.007 nM
